According to patent publication US10717733B2, “Haloallylamine indole and azaindole derivative inhibitors of lysyl oxidases and uses thereof” (PHARMAXIS LTD., priority 2016, dated 2020):
Structures can show the parent of a compound that is named as a salt.

How the values were obtained:
Type in all cases: biochemical
Recombinant human MAO-B = Recombinant human MAO-B (Homo sapiens (Human), UniProt P27338); experiment: Inhibition of human recombinant MAO-B; conditions: benzylamine 100 μM
Protocol: Method to Determine the Ability of Compounds of Formula I to Inhibit Human Recombinant MAO-B
The specificity of the compounds of this invention was tested by determining their ability to inhibit MAO-B activities in vitro. Recombinant human MAO-B (0.06 mg/mL; Sigma Aldrich) was used as source of MAO-B enzyme activities. The assay was performed in a similar way as for human SSAO/VAP-1 (Example 66) except, the substrate benzylamine was used at 100 μM.

Bovine LOX = Bovine LOX (Bos taurus (Bovine), UniProt P33072); experiment: LOX inhibition, peroxidase-coupled Amplex Red amine oxidase assay; conditions: 30 min preincubation at 37° C., putrescine substrate
Sequence of Bovine LOX (P33072 170-418): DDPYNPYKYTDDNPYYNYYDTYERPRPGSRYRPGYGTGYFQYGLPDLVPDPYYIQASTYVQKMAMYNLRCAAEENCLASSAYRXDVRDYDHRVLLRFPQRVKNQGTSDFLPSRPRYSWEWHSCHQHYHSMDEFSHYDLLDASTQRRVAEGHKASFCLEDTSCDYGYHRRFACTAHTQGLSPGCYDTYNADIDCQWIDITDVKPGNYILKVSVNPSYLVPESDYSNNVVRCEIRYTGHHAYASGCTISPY
Excerpt: (§1) Method to Determine the Ability of Compounds of the Invention to Inhibit LOX and LOXL1-4 from Different Sources
Lysyl oxidase (LOX) is an extracellular copper dependent enzyme which oxidizes peptidyl lysine and hydroxylysine residues in collagen and lysine residues in elastin to produce peptidyl alpha-aminoadipic-delta-semialdehydes. […] There are five LOX family members; these are LOX, LOXL1, LOXL2, LOXL3 and LOXL4. LOX and LOXL family members can be acquired as recombinant active proteins from commercial sources, or extracted from animal tissues like bovine aorta, tendons, pig skin; or prepared from cell cultures. The inhibitory effects of the compounds of the present invention were tested against the given LOX-LOXL preparation using a high-throughput coupled colorimetric method (Holt A. and Palcic M., A peroxidase-coupled continuous absorbance plate-reader assay for flavin monoamine oxidases, copper-containing amine oxidases and related enzymes. Nat. Protoc. 2006; 1: 2498-2505). The assay was developed using either 384 or 96 well format. Briefly, in a standard 384 well plate assay 25 μL of a dilution of any of the isoenzymes and orthologues in 1.2 M urea, 50 mM sodium borate buffer (pH 8.2) were added into each well in the presence of 1 μM mofegiline and 0.5 mM pargyline (to inhibit SSAO and MAO-B and MAO-A, respectively). […] of a reaction mixture containing twice the KM concentration of putrescine (Sigma Aldrich, e.g. 20 mM for LOX, or 10 mM for LOXL2 and LOXL3), 120 μM Amplex Red (Sigma Aldrich) and 1.5 U/mL horseradish peroxidase (Sigma Aldrich) prepared in 1.2 M urea, 50 mM sodium borate buffer (pH 8.2) were then added to the corresponding wells. The above volumes were doubled in the case of 96 wells plate. The fluorescence (RFU) was read every 2.5 min for 30 min at a range of temperatures from 37° to 45° C., excitation 565 nm and emission 590 (Optima; BMG labtech). The slope of the kinetics for each well was calculated using MARS data analysis software (BMG labtech) and this value was used to deduce the IC50 value (Dotmatics).

Human LOXL2 = Human LOXL2 (Homo sapiens (Human), UniProt Q9Y4K0); experiment: LOXL2 inhibition, peroxidase-coupled Amplex Red amine oxidase assay; conditions: 30 min preincubation at 37° C., putrescine substrate
Sequence of Human LOXL2 (Q9Y4K0 26-774): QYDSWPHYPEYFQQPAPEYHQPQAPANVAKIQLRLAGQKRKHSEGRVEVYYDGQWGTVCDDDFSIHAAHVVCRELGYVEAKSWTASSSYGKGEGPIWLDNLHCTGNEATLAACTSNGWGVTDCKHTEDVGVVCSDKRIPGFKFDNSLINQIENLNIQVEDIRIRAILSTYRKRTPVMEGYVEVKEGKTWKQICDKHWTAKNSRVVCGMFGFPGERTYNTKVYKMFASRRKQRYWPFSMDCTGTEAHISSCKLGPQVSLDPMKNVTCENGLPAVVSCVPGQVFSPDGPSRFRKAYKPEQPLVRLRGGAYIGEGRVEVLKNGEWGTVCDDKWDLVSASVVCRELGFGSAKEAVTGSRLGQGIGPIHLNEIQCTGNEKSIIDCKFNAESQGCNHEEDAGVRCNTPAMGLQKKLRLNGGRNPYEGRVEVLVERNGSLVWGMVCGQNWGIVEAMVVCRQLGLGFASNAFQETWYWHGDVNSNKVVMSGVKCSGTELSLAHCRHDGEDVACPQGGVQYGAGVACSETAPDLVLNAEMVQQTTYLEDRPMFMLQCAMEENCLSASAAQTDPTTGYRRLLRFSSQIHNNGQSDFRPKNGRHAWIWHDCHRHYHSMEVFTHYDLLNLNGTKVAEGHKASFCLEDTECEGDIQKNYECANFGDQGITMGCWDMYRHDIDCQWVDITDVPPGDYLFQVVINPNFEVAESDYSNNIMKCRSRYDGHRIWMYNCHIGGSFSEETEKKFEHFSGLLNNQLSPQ
Excerpt: as §1
Lysyl oxidase (LOX) is an extracellular copper dependent enzyme which oxidizes peptidyl lysine and hydroxylysine residues in collagen and lysine residues in elastin to produce peptidyl alpha-aminoadipic-delta-semialdehydes. […] There are five LOX family members; these are LOX, LOXL1, LOXL2, LOXL3 and LOXL4. LOX and LOXL family members can be acquired as recombinant active proteins from commercial sources, or extracted from animal tissues like bovine aorta, tendons, pig skin; or prepared from cell cultures. The inhibitory effects of the compounds of the present invention were tested against the given LOX-LOXL preparation using a high-throughput coupled colorimetric method (Holt A. and Palcic M., A peroxidase-coupled continuous absorbance plate-reader assay for flavin monoamine oxidases, copper-containing amine oxidases and related enzymes. Nat. Protoc. 2006; 1: 2498-2505). The assay was developed using either 384 or 96 well format. Briefly, in a standard 384 well plate assay 25 μL of a dilution of any of the isoenzymes and orthologues in 1.2 M urea, 50 mM sodium borate buffer (pH 8.2) were added into each well in the presence of 1 μM mofegiline and 0.5 mM pargyline (to inhibit SSAO and MAO-B and MAO-A, respectively). Test compounds were dissolved in DMSO and tested in a Concentration Response Curve (CRC) with 11 data points, typically in the micromolar or nanomolar range after incubation with the enzyme for 30 min at 37° C. Twenty five L of a reaction mixture containing twice the KM concentration of putrescine (Sigma Aldrich, e.g. 20 mM for LOX, or 10 mM for LOXL2 and LOXL3), 120 μM Amplex Red (Sigma Aldrich) and 1.5 U/mL horseradish peroxidase (Sigma Aldrich) prepared in 1.2 M urea, 50 mM sodium borate buffer (pH 8.2) were then added to the corresponding wells. The above volumes were doubled in the case of 96 wells plate. The fluorescence (RFU) was read every 2.5 min for 30 min at a range of temperatures from 37° to 45° C., excitation 565 nm and emission 590 (Optima; BMG labtech). The slope of the kinetics for each well was calculated using MARS data analysis software (BMG labtech) and this value was used to deduce the IC50 value (Dotmatics).

[1] = target: human recombinant SSAO/VAP-1 (Homo sapiens (Human), UniProt Q16853); experiment: Inhibition of human recombinant SSAO/VAP-1 amine oxidase activity; conditions: 30 min preincubation at 37° C., 600 μM benzylamine
Sequence of human recombinant SSAO/VAP-1 (Q16853 34-763): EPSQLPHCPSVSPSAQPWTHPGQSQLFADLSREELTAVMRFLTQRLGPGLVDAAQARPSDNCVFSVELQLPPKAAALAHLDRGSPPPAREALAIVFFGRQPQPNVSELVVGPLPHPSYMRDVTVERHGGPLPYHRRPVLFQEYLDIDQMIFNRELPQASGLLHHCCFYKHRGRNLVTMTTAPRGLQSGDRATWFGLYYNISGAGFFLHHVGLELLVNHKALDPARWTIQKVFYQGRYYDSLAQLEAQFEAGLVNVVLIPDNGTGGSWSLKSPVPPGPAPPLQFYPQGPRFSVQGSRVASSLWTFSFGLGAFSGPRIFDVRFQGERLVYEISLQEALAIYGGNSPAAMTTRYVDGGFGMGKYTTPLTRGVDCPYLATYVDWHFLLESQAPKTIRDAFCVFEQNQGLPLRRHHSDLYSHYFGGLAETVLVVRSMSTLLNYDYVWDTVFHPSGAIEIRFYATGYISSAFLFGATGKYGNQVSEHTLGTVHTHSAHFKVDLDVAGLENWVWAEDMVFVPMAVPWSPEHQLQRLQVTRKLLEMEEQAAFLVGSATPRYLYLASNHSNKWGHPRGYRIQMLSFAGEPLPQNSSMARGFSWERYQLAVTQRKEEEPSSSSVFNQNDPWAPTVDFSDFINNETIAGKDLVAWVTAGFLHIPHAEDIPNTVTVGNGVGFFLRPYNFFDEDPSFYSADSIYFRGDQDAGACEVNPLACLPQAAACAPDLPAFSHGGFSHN
Protocol: Method to Determine the Ability of Compounds of Formula I to Inhibit Human Recombinant SSAO/VAP-1
Human recombinant SSAO/VAP-1 amine oxidase activity was determined using the coupled colorimetric method as described for monoamine oxidase, copper-containing amine oxidases and related enzymes (Holt A. and Palcic M., A peroxidase-coupled continuous absorbance plate-reader assay for flavin monoamine oxidases, copper-containing amine oxidases and related enzymes. Nat Protoc 2006; 1: 2498-2505). Briefly, a cloned cDNA template corresponding to residues 34-763 of human SSAO/VAP-1, and incorporating a mouse Ig kappa (κ) signal sequence, N-terminal flag epitope tag and tobacco etch virus (TEV) cleavage site, was assembled in a mammalian expression vector (pLO-CMV) by Geneart AG. This vector containing human SSAO/VAP-1 residues was transfected into CHO-K1 glycosylation mutant cell line, Lec 8. A clone stably expressing human SSAO/VAP-1 was isolated and cultured in large scale. Active human SSAO/VAP-1 was purified and recovered using immunoaffinity chromatography. This was used as the source for SSAO/VAP-1 activity. A high-throughput colorimetric assay was developed using either 96 or 384 well format. Briefly, in a standard 96 well plate assay 50 μL of purified human SSAO/VAP-1 (0.25 μg/mL) in 0.1 M sodium phosphate buffer (pH 7.4) was added into each well. Test compounds were dissolved in DMSO and tested in a Concentration Response Curve (CRC) with 4-11 data points, typically in the micromolar or nanomolar range after incubation with human SSAO/VAP-1 for 30 min at 37° C. After 30 min incubation, 50 μL of the reaction mixture containing 600 μM benzylamine (Sigma Aldrich), 120 μM Amplex Red (Sigma Aldrich) and 1.5 U/mL horseradish peroxidase (Sigma Aldrich) prepared in 0.1 M sodium phosphate buffer (pH 7.4) were added to the corresponding well. The fluorescence unit (RFU) was read every 2.5 min for 30 min at 37° C. excitation 565 nm and emission 590 (Optima; BMG labtech). The slope of the kinetics for each well was calculated using MARS data analysis software (BMG labtech) and this value was used to deduce the IC50 value (Dotmatics).

Sequence of Recombinant human MAO-B (P27338 whole entry): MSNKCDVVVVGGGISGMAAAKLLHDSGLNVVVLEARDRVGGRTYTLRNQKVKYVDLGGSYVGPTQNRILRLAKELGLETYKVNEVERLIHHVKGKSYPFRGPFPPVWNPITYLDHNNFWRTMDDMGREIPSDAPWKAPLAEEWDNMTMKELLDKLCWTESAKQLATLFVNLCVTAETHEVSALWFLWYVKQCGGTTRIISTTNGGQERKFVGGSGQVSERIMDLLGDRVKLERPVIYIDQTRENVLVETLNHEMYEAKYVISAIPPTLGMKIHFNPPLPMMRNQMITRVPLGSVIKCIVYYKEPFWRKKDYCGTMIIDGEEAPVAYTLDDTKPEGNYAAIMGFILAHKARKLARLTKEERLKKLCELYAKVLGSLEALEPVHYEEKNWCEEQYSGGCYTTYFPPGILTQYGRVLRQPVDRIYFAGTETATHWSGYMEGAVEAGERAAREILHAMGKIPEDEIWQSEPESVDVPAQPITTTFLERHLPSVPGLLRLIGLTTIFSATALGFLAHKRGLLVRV

| SMILES | IC50 (Recombinant human MAO-B) | IC50 (Bovine LOX) | IC50 (Human LOXL2) | IC50 [1] |
| --- | --- | --- | --- | --- |
| Cc1c(-c2cccc(S(=O)(=O)N(C)C)c2)c2ccc(C(N)=O)cc2n1C/C(F)=C/CN [Compound 11, (Z)-1-(4-amino-2-fluorobut-2-en-1-yl)-3-(3-(N,N-dimethylsulfamoyl)phenyl)-2-methyl-1H-indole-6-carboxamide] | > 3000 nM | > 300 nM | < 300 nM | > 3000 nM |
| Cc1c(-c2c(C)n(C/C(F)=C/CN)c3ccc(C(=O)O)cc23)cccc1S(=O)(=O)N(C)C [Compound 13, (Z)-1-(4-amino-2-fluorobut-2-en-1-yl)-3-(3-(N,N-dimethylsulfamoyl)-2-methylphenyl)-2-methyl-1H-indole-5-carboxylic acid] | > 3000 nM | > 300 nM | < 300 nM | > 3000 nM |
| Cc1c(-c2cccc(S(C)(=O)=O)c2)c2cc(C(=O)O)ccc2n1C/C(F)=C/CN [Compound 14, (Z)-1-(4-amino-2-fluorobut-2-en-1-yl)-2-methyl-3-(3-(methylsulfonyl)phenyl)-1H-indole-5-carboxylic acid] | > 3000 nM | > 300 nM | < 300 nM | > 3000 nM |
| CCOC(=O)c1ccc2c(c1)c(-c1cccc(C(=O)N(C)C)c1)c(C)n2C/C(F)=C/CN [Compound 15, (Z)-ethyl 1-(4-amino-2-fluorobut-2-en-1-yl)-3-(3-(dimethylcarbamoyl)phenyl)-2-methyl-1H-indole-5-carboxylate Hydrochloride] | > 3000 nM | > 300 nM | < 300 nM | > 3000 nM |
| Cc1c(-c2cccc(C(=O)N(C)C)c2)c2cc(C(=O)O)ccc2n1C/C(F)=C/CN [Compound 16, (Z)-1-(4-amino-2-fluorobut-2-en-1-yl)-3-(3-(dimethylcarbamoyl)phenyl)-2-methyl-1H-indole-5-carboxylic Acid Hydrochloride] | > 3000 nM | > 300 nM | < 300 nM | > 3000 nM |
| CCOC(=O)c1ccc2c(c1)c(-c1cccc(S(C)(=O)=O)c1)c(C)n2C/C(F)=C/CN [Compound 17, (Z)-ethyl 1-(4-amino-2-fluorobut-2-en-1-yl)-2-methyl-3-(3-(methylsulfonyl)phenyl)-1H-indole-5-carboxylate] | > 3000 nM | > 300 nM | < 300 nM | > 3000 nM |
| CNS(=O)(=O)c1cccc(-c2c(C)n(C/C(F)=C/CN)c3ccc(C(=O)O)cc23)c1 [Compound 18, (Z)-1-(4-amino-2-fluorobut-2-en-l-yl)-2-methyl-3-(3-(N-methylsulfamoyl)phenyl)-1H-indole-5-carboxylic acid, Hydrochloride] | > 3000 nM | > 300 nM | < 300 nM | > 3000 nM |
| CCOC(=O)c1ccc2c(c1)c(-c1cc(S(=O)(=O)N(C)C)ccc1C)c(C)n2C/C(F)=C/CN [Compound 19, (Z)-ethyl 1-(4-amino-2-fluorobut-2-en-1-yl)-3-(5-(N,N-dimethylsulfamoyl)-2-methylphenyl)-2-methyl-1H-indole-5-carboxylate] | > 3000 nM | > 300 nM | < 300 nM | > 3000 nM |
| Cc1ccc(S(=O)(=O)N(C)C)cc1-c1c(C)n(C/C(F)=C/CN)c2ccc(C(=O)O)cc12 [Compound 20, (Z)-1-(4-amino-2-fluorobut-2-en-1-yl)-3-(5-(N,N-dimethylsulfamoyl)-2-methylphenyl)-2-methyl-1H-indole-5-carboxylic acid] | > 3000 nM | > 300 nM | < 300 nM | > 3000 nM |
| Cc1c(-c2cccc(S(=O)(=O)N(C)C)c2)c2cc(C(=O)O)c(F)cc2n1C/C(F)=C/CN [Compound 21, (Z)-1-(4-amino-2-fluorobut-2-en-1-yl)-3-(3-(N,N-dimethylsulfamoyl)phenyl)-6-fluoro-2-methyl-1H-indole-5-carboxylic acid] | > 3000 nM | > 300 nM | < 300 nM | > 3000 nM |
| CCOC(=O)c1cc2c(-c3cccc(S(=O)(=O)N(C)C)c3)c(C)n(C/C(F)=C/CN)c2cc1F [Compound 22, (Z)-ethyl 1-(4-amino-2-fluorobut-2-en-1-yl)-3-(3-(N,N-dimethylsulfamoyl)phenyl)-6-fluoro-2-methyl-1H-indole-5-carboxylate] | > 3000 nM | > 300 nM | < 300 nM | > 3000 nM |
| Cc1c(-c2ccc(F)cc2)c2cc(C(=O)O)ccc2n1C/C(F)=C/CN [Compound 23, (Z)-1-(4-amino-2-fluorobut-2-en-1-yl)-3-(4-fluorophenyl)-2-methyl-1H-indole-5-carboxylic acid] | > 3000 nM | > 300 nM | < 300 nM | > 3000 nM |
| CCOC(=O)c1ccc2c(c1)c(-c1ccc(F)cc1)c(C)n2C/C(F)=C/CN [Compound 24, ethyl (Z)-1-(4-amino-2-fluorobut-2-en-1-yl)-3-(4-fluorophenyl)-2-methyl-1H-indole-5-carboxylate] | > 3000 nM | > 300 nM | < 300 nM | > 3000 nM |
| Cc1c(-c2cccc(S(=O)(=O)N(C)C)c2)c2cnccc2n1C/C(F)=C/CN [Compound 26, (Z)-3-(1-(4-amino-2-fluorobut-2-en-1-yl)-2-methyl-1H-pyrrolo[3,2-c]pyridin-3-yl)-N,N-dimethylbenzenesulfonamide Dihydrochloride] | > 3000 nM | > 300 nM | < 300 nM | > 3000 nM |
